These results are taken from patent US10723741B1, “DNA polymerase IIIC inhibitors and use thereof” (Acurx Pharmaceuticals, LLC, priority 2018, dated 2020).

≈ marks a conversion by molar mass, not a printed value. A value given as a limit tells only on which side of the number the result lay.

Assay type in all cases: cell-based
In experiment [1] the test system is Enterococcus faecalis ATCC 29212. In words: Broth microdilution MIC, E. faecalis ATCC 29212. Particulars: ATCC29212, broth microdilution, 37° C., 20 hours, read-out: MIC E. faecalis ATCC 29212. The gist of the method: (§1)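 Two-fold dilutions from 64 to 0.0625 μg/ml final, 1% DMSO, were inoculated at ~5.0×10^5 cfu/ml in the strain's test medium and kept 20 h at 37 °C in ambient atmosphere. Colonies were grown on MHA, with S. pneumoniae on blood agar under 5% CO2.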
(In broth dilution the organism is exposed to a series of concentrations in liquid medium.)

Experiment [2] deals with Staphylococcus aureus NRS384 (MRSA). Put plainly: Broth microdilution MIC, S. aureus NRS384 (MRSA). The note with it: Staphylococcus aureus; broth microdilution, 37° C., 20 hours; read-out: MIC NRS 384 (MRSA). The gist of the method: as §1
For experiment [3], the system named is Escherichia coli ATCC 25922. In words: Broth microdilution MIC, E. coli ATCC 25922 (MHIIB w & w/o 4 mM EDTA). Particulars: broth microdilution, 37° C., 20 hours; for MIC: Escherichia coli, ATCC25922, without EDTA, read-out: MIC E. coli ATCC 25922; for MIC E. coli ATCC 25922 + 4 mM EDTA: with 4 mM EDTA. The gist of the method:
as §1

The test system of experiment [4] is Enterococcus faecium ATCC 700221 (VRE). In words: Broth microdilution MIC, E. faecium ATCC 700221 (VRE). Particulars: Enterococcus faecium; broth microdilution, 37° C., 20 hours; read-out: MIC E. faecium ATCC 700221 (VRE). The gist of the method: as §1
In experiment [5] the test system is Streptococcus pneumoniae ATCC 49619. In words: Broth microdilution MIC, S. pneumoniae ATCC 49619. The note with it: ATCC49619, broth microdilution, 37° C., 20 hours, read-out: MIC S. pneumoniae ATCC 49619. The gist of the method:
as §1

The subject of experiment [6] is Bacillus subtilis ATCC 6633. Put plainly: Broth microdilution MIC, B. subtilis ATCC 6633. The note with it: ATCC6633, broth microdilution, 37° C., 20 hours, read-out: MIC B. subtilis ATCC 6633. The gist of the method:
as §1

For experiment [7], the system named is Staphylococcus aureus ATCC 29213 (MSSA). Put plainly: Broth microdilution MIC, S. aureus ATCC 29213 (MSSA). The note with it: broth microdilution, 37° C., 20 hours, read-out: MIC S. aureus ATCC 29213 (MSSA). The gist of the method:
as §1

`O=c1[nH]c(NCc2ccc(Cl)c(Cl)c2)nc2cnn(CC3COC3)c12` [Compound 118, 5-((3,4-Dichlorobenzyl)amino)-1-(oxetan-3-ylmethyl)-1H-pyrazolo[4,3-d]pyrimidin-7(6H)-one]: the MIC (usually the lowest concentration that inhibits growth of the organism) was 2 µg/mL (≈ 5.26 µM) in experiment [1]; 2 µg/mL (≈ 5.26 µM) in experiment [2]; above 64 µg/mL in experiment [3]; 1 µg/mL (≈ 2.63 µM) in experiment [4]; 2 µg/mL (≈ 5.26 µM) in experiment [5]; 0.5 µg/mL (≈ 1.31 µM) in experiment [6]. Further, in experiment [7], the MIC came to 2 µg/mL (≈ 5.26 µM). The “MIC E. coli ATCC 25922 + 4 mM EDTA” value in experiment [3] is above 64 µg/mL.

With `O=c1[nH]c(NCc2ccc(Cl)c(Cl)c2)nc2cnn(C3CCOC3)c12` (stereo not drawn) [Compound 119, 5-((3,4-Dichlorobenzyl)amino)-1-(tetrahydrofuran-3-yl)-1H-pyrazolo[4,3-d]pyrimidin-7(6H)-one], the MIC was 4 µg/mL (≈ 10.5 µM) in experiment [1]; 4 µg/mL (≈ 10.5 µM) in experiment [2]; above 64 µg/mL in experiment [3]; 2 µg/mL (≈ 5.26 µM) in experiment [4]; 4 µg/mL (≈ 10.5 µM) in experiment [5]; 1 µg/mL (≈ 2.63 µM) in experiment [6]. The MIC in experiment [7] came to 2 µg/mL (≈ 5.26 µM). In addition, the “MIC E. coli ATCC 25922 + 4 mM EDTA” value in experiment [3] is above 64 µg/mL.

On to `O=c1[nH]c(NCc2ccc(Cl)c(Cl)c2)nc2cnn(CC3CCOC3)c12` (stereo not drawn) [Compound 120, 5-((3,4-Dichlorobenzyl)amino)-1-((tetrahydrofuran-3-yl)methyl)-1H-pyrazolo[4,3-d]pyrimidin-7(6H)-one], for which the MIC in experiment [1] was 4 µg/mL (≈ 10.1 µM); in experiment [2] it was 2 µg/mL (≈ 5.07 µM); in experiment [3] it was above 64 µg/mL; in experiment [4] it was 2 µg/mL (≈ 5.07 µM); in experiment [5], 4 µg/mL (≈ 10.1 µM); in experiment [6] it was 1 µg/mL (≈ 2.54 µM). In experiment [7], the MIC was 2 µg/mL (≈ 5.07 µM). For the same compound, the “MIC E. coli ATCC 25922 + 4 mM EDTA” value in experiment [3] is above 64 µg/mL.

For the compound `O=c1[nH]c(NCc2ccc(Cl)c(Cl)c2)nc2cnn(C3CCOCC3)c12` [Compound 121, 5-((3,4-Dichlorobenzyl)amino)-1-(tetrahydro-2H-pyran-4-yl)-1H-pyrazolo[4,3-d]pyrimidin-7(6H)-one], the minimal inhibitory concentration (MIC) is 4 µg/mL (≈ 10.1 µM) in experiment [1]; 2 µg/mL (≈ 5.07 µM) in experiment [2]; above 64 µg/mL in experiment [3]; 2 µg/mL (≈ 5.07 µM) in experiment [4]; 4 µg/mL (≈ 10.1 µM) in experiment [5]; 0.5 µg/mL (≈ 1.27 µM) in experiment [6]. Besides, in experiment [7], the MIC was determined as 4 µg/mL (≈ 10.1 µM). Moreover, in experiment [3], the “MIC E. coli ATCC 25922 + 4 mM EDTA” value is above 64 µg/mL.

On to `O=c1[nH]c(NCc2ccc(Cl)c(Cl)c2)nc2cnn(CC3CCO3)c12` (stereo not drawn) [Compound 122, 5-((3,4-Dichlorobenzyl)amino)-1-(oxetan-2-ylmethyl)-1H-pyrazolo[4,3-d]pyrimidin-7(6H)-one], for which the MIC is 4 µg/mL (≈ 10.5 µM) in experiment [1]; 2 µg/mL (≈ 5.26 µM) in experiment [2]; above 64 µg/mL in experiment [3]; 2 µg/mL (≈ 5.26 µM) in experiment [4]; 4 µg/mL (≈ 10.5 µM) in experiment [5]; 1 µg/mL (≈ 2.63 µM) in experiment [6]. Further, the MIC in experiment [7] was determined as 2 µg/mL (≈ 5.26 µM). Besides, the “MIC E. coli ATCC 25922 + 4 mM EDTA” value in experiment [3] is above 64 µg/mL.

`O=c1[nH]c(NCc2ccc(Cl)c(Cl)c2)nc2cnn(CCCO)c12` [Compound 123, 5-((3,4-Dichlorobenzyl)amino)-1-(3-hydroxypropyl)-1H-pyrazolo[4,3-d]pyrimidin-7(6H)-one]: the MIC in experiment [1] is 4 µg/mL (≈ 10.9 µM); in experiment [2], 2 µg/mL (≈ 5.43 µM); in experiment [3], above 64 µg/mL; in experiment [4], 1 µg/mL (≈ 2.72 µM); in experiment [5] it was 2 µg/mL (≈ 5.43 µM); in experiment [6], 0.5 µg/mL (≈ 1.36 µM). For the same compound, the MIC in experiment [7] worked out at 2 µg/mL (≈ 5.43 µM). The “MIC E. coli ATCC 25922 + 4 mM EDTA” value in experiment [3] is above 64 µg/mL.

`Cl.O=c1[nH]c(NCc2ccc(Cl)c(Cl)c2)nc2cnn(CCc3cnccn3)c12` [Compound 124, 5-((3,4-Dichlorobenzyl)amino)-1-(2-(pyrazin-2-yl)ethyl)-1H-pyrazolo[4,3-d]pyrimidin-7(6H)-one hydrochloride]: the MIC was 4 µg/mL in experiment [1]; 2 µg/mL in experiment [2]; above 64 µg/mL in experiment [3]; 2 µg/mL in experiment [4]; 8 µg/mL in experiment [5]; 1 µg/mL in experiment [6]. For the same compound, in experiment [7], the MIC was found to be 4 µg/mL. In addition, the “MIC E. coli ATCC 25922 + 4 mM EDTA” value in experiment [3] was above 64 µg/mL.

For `O=c1[nH]c(NCc2ccc(F)c(F)c2)nc2cnn(CC3CCO3)c12` (stereo not drawn) [Compound 125, 5-((3,4-Difluorobenzyl)amino)-1-(oxetan-2-ylmethyl)-1H-pyrazolo[4,3-d]pyrimidin-7(6H)-one], the MIC was 32 µg/mL (≈ 92.1 µM) in experiment [1]; 32 µg/mL (≈ 92.1 µM) in experiment [2]; above 64 µg/mL in experiment [3]; 32 µg/mL (≈ 92.1 µM) in experiment [4]; 8 µg/mL (≈ 23 µM) in experiment [5]; 32 µg/mL (≈ 92.1 µM) in experiment [6]. Also, the minimal inhibitory concentration (MIC) in experiment [7] is 32 µg/mL (≈ 92.1 µM). Moreover, the “MIC E. coli ATCC 25922 + 4 mM EDTA” value in experiment [3] is above 64 µg/mL.

`O=c1[nH]c(NCc2ccc(Cl)c(Cl)c2)nc2cnn(Cc3ccccc3)c12` [Compound 127, 1-Benzyl-5-((3,4-dichlorobenzyl)amino)-1H-pyrazolo[4,3-d]pyrimidin-7(6H)-one]: the MIC is above 64 µg/mL in experiment [1]; above 64 µg/mL in experiment [2]; above 64 µg/mL in experiment [3]; 32 µg/mL (≈ 79.9 µM) in experiment [4]; above 64 µg/mL in experiment [5]; 1 µg/mL (≈ 2.5 µM) in experiment [6]. In addition, the MIC in experiment [7] is above 64 µg/mL. Also, the “MIC E. coli ATCC 25922 + 4 mM EDTA” value in experiment [3] is above 64 µg/mL.

Take `COCCn1cc2nc(NCc3ccc(Cl)c(Cl)c3)[nH]c(=O)c2n1` [Compound 128, 5-((3,4-Dichlorobenzyl)amino)-2-(2-methoxyethyl)-2H-pyrazolo[4,3-d]pyrimidin-7(6H)-one]: the MIC in experiment [1] is 32 µg/mL (≈ 86.9 µM); in experiment [2] it was 32 µg/mL (≈ 86.9 µM); in experiment [3], above 64 µg/mL; in experiment [4], 32 µg/mL (≈ 86.9 µM); in experiment [5] it was 16 µg/mL (≈ 43.5 µM); in experiment [6], 16 µg/mL (≈ 43.5 µM). The MIC in experiment [7] stood at 32 µg/mL (≈ 86.9 µM). In addition, the “MIC E. coli ATCC 25922 + 4 mM EDTA” value in experiment [3] is above 64 µg/mL.

For `O=c1[nH]c(NCc2ccc(Cl)c(Cl)c2)nc2cn(Cc3ccccc3)nc12` [Compound 129, 2-Benzyl-5-((3,4-dichlorobenzyl)amino)-2H-pyrazolo[4,3-d]pyrimidin-7(6H)-one], the MIC in experiment [1], in experiment [2], in experiment [3], in experiment [4], in experiment [5] and in experiment [6] was above 64 µg/mL each time. Moreover, the MIC in experiment [7] was above 64 µg/mL. In addition, the “MIC E. coli ATCC 25922 + 4 mM EDTA” value in experiment [3] was above 64 µg/mL.

Take `CC(C)n1ncc2nc(NCc3ccc(Cl)c(Cl)c3)[nH]c(=O)c21` [Compound 130, 5-((3,4-Dichlorobenzyl)amino)-1-isopropyl-1H-pyrazolo[4,3-d]pyrimidin-7(6H)-one]: the MIC in experiment [1] was 4 µg/mL (≈ 11.4 µM); in experiment [2], 2 µg/mL (≈ 5.68 µM); in experiment [3], above 64 µg/mL; in experiment [4] it was 2 µg/mL (≈ 5.68 µM); in experiment [5] it was 4 µg/mL (≈ 11.4 µM); in experiment [6] it was 1 µg/mL (≈ 2.84 µM). Also, the MIC in experiment [7] came out at 2 µg/mL (≈ 5.68 µM). Moreover, the “MIC E. coli ATCC 25922 + 4 mM EDTA” value in experiment [3] came to 16 µg/mL.

On to `COCCCCCn1ncc2nc(NCc3ccc(Cl)c(Cl)c3)[nH]c(=O)c21` [Compound 131, 5-((3,4-Dichlorobenzyl)amino)-1-(5-methoxypentyl)-1H-pyrazolo[4,3-d]pyrimidin-7(6H)-one], for which the MIC was 4 µg/mL (≈ 9.75 µM) in experiment [1]; 2 µg/mL (≈ 4.87 µM) in experiment [2]; above 64 µg/mL in experiment [3]; 2 µg/mL (≈ 4.87 µM) in experiment [4]; 4 µg/mL (≈ 9.75 µM) in experiment [5]; 1 µg/mL (≈ 2.44 µM) in experiment [6]. In addition, in experiment [7], the MIC worked out at 2 µg/mL (≈ 4.87 µM). For the same compound, in experiment [3], the “MIC E. coli ATCC 25922 + 4 mM EDTA” value was above 64 µg/mL.

Consider `CC(C)n1cc2nc(NCc3ccc(Cl)c(Cl)c3)[nH]c(=O)c2n1` [Compound 132, 5-((3,4-Dichlorobenzyl)amino)-2-isopropyl-2H-pyrazolo[4,3-d]pyrimidin-7(6H)-one], for which the MIC in experiment [1] is above 64 µg/mL; in experiment [2] it was above 64 µg/mL; in experiment [3], above 64 µg/mL; in experiment [4], 16 µg/mL (≈ 45.4 µM); in experiment [5], 16 µg/mL (≈ 45.4 µM); in experiment [6] it was 8 µg/mL (≈ 22.7 µM). Moreover, in experiment [7], the MIC is above 64 µg/mL. In experiment [3], the “MIC E. coli ATCC 25922 + 4 mM EDTA” value is above 64 µg/mL.

Consider `COCCCCCn1cc2nc(NCc3ccc(Cl)c(Cl)c3)[nH]c(=O)c2n1` [Compound 133, 5-((3,4-Dichlorobenzyl)amino)-2-(5-methoxypentyl)-2H-pyrazolo[4,3-d]pyrimidin-7(6H)-one], for which the MIC is above 64 µg/mL in experiment [1]; above 64 µg/mL in experiment [2]; above 64 µg/mL in experiment [3]; 64 µg/mL (≈ 156 µM) in experiment [4]; 16 µg/mL (≈ 39 µM) in experiment [5]; 8 µg/mL (≈ 19.5 µM) in experiment [6]. For the same compound, in experiment [7], the MIC is above 64 µg/mL. In addition, the “MIC E. coli ATCC 25922 + 4 mM EDTA” value in experiment [3] is above 64 µg/mL.
